These results are taken from patent US9879038B2, “Salt of tenofovir disoproxil” (JW Pharmaceutical Corporation, priority 2014, dated 2018).

Entries after “also recorded” stand apart in the source; their conditions may differ.

What all share (assay type): physicochemical
Data set [1] can be described thus: Evaluation of stability (stressed conditions) depending on generation of related substances, HPLC (USP). The note with it: for related substance generated: FIG. 1c. Here is the method: In order to evaluate stability (stressed conditions), according to the ICH guidelines, tenofovir disoproxil edisylate of the present invention (Example 1: TDE) and tenofovir disoproxil fumarate (Comparative Example 1: TDF) as a control group were used, and analyzed using high-perfoiinance liquid chromatography (HPLC) as set forth in the U.S. Pharmacopeia (USP). The results are shown in Table 1 below (stressed conditions: 60±2° C.).
The tenofovir disoproxil hemi-edisylate of the present invention (Example 1: TDE (hemi salt)), serving as a test group, and tenofovir disoproxil mono-edisylate (Comparative Example 2: TDE (mono salt)), serving as a control group, were evaluated for stability for 3 weeks in the same manner as in (1) above.

A short description of data set [2]: Evaluation of saturation solubility. Details: saturation solubility: unit not given here. Conditions: for solubility: thermodynamic from solid. Here is the method: The saturation solubility of the tenofovir disoproxil hemi-edisylate of the present invention (Example 1) and the tenofovir disoproxil fumarate salt (Comparative Example 1) as a control group were evaluated.

Data set [3] in a line: Evaluation of stability depending on changes in pH. Conditions: deionized water and pH 1.2, 4.0, 6.8 buffers, 30° C., HPLC, FIGS. 2 and 3. Here is the method:
When a drug is orally administered, it is absorbed in vivo through the stomach, duodenum, small intestine, etc. […] In the present invention, stability was measured using deionized water and three different pH buffer solutions (at pH 1.2, 4.0, and 6.8) for release testing. A test method was performed in a manner in which 5 mg of each of the tenofovir disoproxil hemi-edisylate of the present invention and the tenofovir disoproxil fumarate as a control group was accurately weighed, completely dissolved in 1 mL of a mixture of acetonitrile and water (1:19), and then added with 9 mL of each of the above pH buffer solutions. The individual samples thus prepared were placed in a chamber at 30° C. and changes in the amounts thereof over time were quantified using HPLC.

The mark [4] stands for this setting: stressed conditions 60±2° C., 7 days.
[5] abbreviates: stressed conditions 60±2° C., 14 days.
[6] abbreviates: stressed conditions 60±2° C., 21 days.
Setting [7] is: stressed conditions 60±2° C., Initial.

As for `CC(C)OC(=O)OCOP(=O)(CO[C@H](C)Cn1cnc2c(N)ncnc21)OCOC(=O)OC(C)C.O=C(O)/C=C/C(=O)O` [TDF, 9-[2-(R)-[[bis[[(isopropoxycarbonyl)oxy]methoxy]phosphinoyl]methoxy]propyl]adenine fumaric acid (1:1)], in data set [1] (setting [4]), the “Related substances: Adenine” value came to 0.01%, the “Related substances: Tenofovir isoproxil monoester” value is 0.79%, the “Related substances: Unspecified impurity-1” value stood at 0.01% and the “Related substances: Unspecified impurity-2” value is 0.09%. For the same molecule, in data set [1] (setting [4]), the “Related substances: Unspecified impurity-3” value is listed as 0.03% and the “Related substances: Unspecified impurity-5” value came to 0.21%. Further, in data set [1] (setting [5]), the “Related substances: Adenine” value came to 0.01%, the “Related substances: Tenofovir isoproxil monoester” value amounted to 1.26%, the “Related substances: Unspecified impurity-1” value was 0.05% and the “Related substances: Unspecified impurity-2” value is 0.27%. Besides, in data set [1] (setting [5]), the “Related substances: Unspecified impurity-3” value is on record as 0.04%, the “Related substances: Unspecified impurity-4” value is 0.04%, the “Related substances: Unspecified impurity-5” value stood at 0.63% and the “Related substances: Unspecified impurity-6” value is listed as 0.07%. In addition, in data set [1] (setting [5]), the “Related substances: Unspecified impurity-7” value was determined as 0.42%. In data set [1] (setting [6]), the “Related substances: Adenine” value worked out at 0.01%, the “Related substances: Tenofovir isoproxil monoester” value worked out at 1.81%, the “Related substances: Unspecified impurity-2” value is listed as 0.18% and the “Related substances: Unspecified impurity-3” value came to 0.03%. Further, the “Related substances: Unspecified impurity-5” value in data set [1] (setting [6]) was 0.21%. Moreover, in data set [1] (setting [7]), the “Related substances: Adenine” value is given as 0.01%, the “Related substances: Tenofovir isoproxil monoester” value stood at 0.42%, the “Related substances: Unspecified impurity-2” value amounted to 0.03% and the “Related substances: Unspecified impurity-3” value was 0.02%. Further, the “Related substances: Unspecified impurity-5” value in data set [1] (setting [7]) worked out at 0.05%. Further, the solubility (as a rule, how much of the substance goes into solution per volume) in data set [2] (aqueous buffer, pH 4.0) turned out to be 13.2 mg/mL. Moreover, the concentration in solution in data set [2] (pH 1.2, simulated gastric fluid) (solubility) was 39.2 mg/mL. The same molecule showed a solubility in data set [2] (pH 6.8, aqueous buffer) of 9.4 mg/mL. In data set [2] (DW (Deionized Water)), this molecule showed a solubility of 13.5 mg/mL.
The molecule `CC(C)OC(=O)OCOP(=O)(COC(C)Cn1cnc2c(N)ncnc21)OCOC(=O)OC(C)C.O=S(=O)(O)CCS(=O)(=O)O` (centres unmarked) [tenofovir disoproxil mono-edisylate, Tenofovir disoproxil mono-edisylate] came in with a related substance generated in data set [1] (stressed conditions, 3rd week) of 5.62.
With “9-[(R)-2-[[bis[[(isopropoxycarbonyl)oxy]methoxy]phosphinyl]methoxy]propyl]adenine hemiedisylate [TDE]”, in data set [1] (stressed conditions 60±2° C., 3 weeks, versus control salt, listed as tenofovir disoproxil hemi-edisylate), the “stability under stressed conditions (in words)” value is recorded as “very stable under stressed conditions compared to the disoproxil fumarate; also recorded: very stable under stressed conditions compared to the tenofovir disoproxil mono-edisylate”. Besides, the “Related substances: Tenofovir disoproxil ethyl ester” value amounted to 0.02% in data set [1] (setting [4]), 0.01% in data set [1] (setting [5]), 0.02% in data set [1] (setting [6]) and 0.01% in data set [1] (setting [7]). Besides, the “Related substances: Tenofovir isopropyl isoproxil” value in data set [1] (setting [4]), in data set [1] (setting [5]), in data set [1] (setting [6]) and in data set [1] (setting [7]) was 0.04% each time. The “Related substances: Tenofovir isoproxil monoester” value in data set [1] (setting [4]) is recorded as 0.27%; in data set [1] (setting [5]), 0.30%; in data set [1] (setting [6]), 0.37%; in data set [1] (setting [7]) it was 0.26%. The related substance generated in data set [1] (stressed conditions, 3rd week) came to 0.37. In addition, the “stability superior to that of tenofovir disoproxil mono-edisylate” value in data set [1] (stressed conditions, 3rd week, related substance 0.37 vs 5.62) is “at least 15 times”. The saturation solubility in data set [2] (DW (Deionized Water)) came out at 2200; in data set [2] (pH 1.2), 2680; in data set [2] (pH 4.0), 2280; in data set [2] (pH 6.8), 2400. The “stability depending on changes in pH” value in data set [3] is reported as “stability equal to that of a conventional tenofovir disoproxil fumarate product”.
